Data on 41 molecules can be found in patent US5747235A, “Silver halide light sensitive emulsion layer having enhanced photographic sensitivity” (Eastman Kodak Company, priority 1996, dated 1998).

Type in all cases: physicochemical
A short description of data set [1]: oxidation potential E1 by cyclic voltammetry. As to conditions: Table A; 80%/20% acetonitrile/water, 0.1M lithium perchlorate, 25° C. The procedure:
Oxidation potentials are well known and can be found, for example, in "Encyclopedia of Electrochemistry of the Elements", Organic Section, Volumes XI-XV, A. Bard and H. Lund (Editors) Marcel Dekker Inc., NY. (1984). E1 can be measured by the technique of cyclic voltammetry. In this technique, the electron donating compound is dissolved in a solution of 80%/20% by volume acetonitrile to water containing 0.1M lithium perchlorate. Oxygen is removed from the solution by passing nitrogen gas through the solution for 10 minutes prior to measurement. A glassy carbon disk is used for the working electrode, a platinum wire is used for the counter electrode, and a saturated calomel electrode (SCE) is used for the reference electrode. Measurement is conducted at 25° C. using a potential sweep rate of 0.1 V/sec. The oxidation potential vs. SCE is taken as the peak potential of the cyclic voltammetric wave.

Data set [2] in a line: oxidation potential E2 of radical X by laser flash photolysis. As to conditions: Table C; by parent XY compound; < = more negative than. From the text: In this technique, the compound X-Y is oxidized by an electron transfer reaction initiated by a short laser pulse. The oxidized form of X-Y then undergoes the bond cleavage reaction to give the radical X^.cndot.. X^.cndot. is then allowed to interact with various electron acceptor compounds of known reduction potential. […] The experimental details are set forth more fully below. The oxidation potentials (E2) for radicals X^.cndot. for typical compounds useful in accordance with our invention are given in Table C. Where only limits on potentials could be determined, the following notation is used: <-0.90 V should be read as "more negative than -0.90 V" and >-0.40 V should be read as "less negative than -0.40 V".
(a) Oxidation Potential of Radical X.cndot.
The laser flash photolysis measurements were performed using a nanosecond pulsed excimer (Questek model 2620, 308 nm, ca. 20 ns, ca. 100 mJ) pumped dye laser (Lambda Physik model FL 3002). The laser dye was DPS (commercially available from Exciton Co.) in p-dioxane (410 nm, ca. 20 ns, ca. 10 mJ). The analyzing light source was a pulsed 150W xenon arc lamp (Osram XBO 150/W). The arc lamp power supply was a PRA model 302 and the pulser was a PRA model M-306. The pulser increased the light output by ca. 100 fold, for a time period of ca. 2-3 ms. The analyzing light was focussed through a small aperture (ca. 1.5 mm) in a cell holder designed to hold 1 cm^2 cuvettes. The laser and analyzing beams irradiated the cell from opposite directions and crossed at a narrow angle (ca. 15°). After leaving the cell, the analyzing light was collimated and focussed onto the slit (1 mm, 4 nm bandpass) of an ISA H-20 monochromator. The light was detected using 5 dynodes of a Hamamatsu model R446 photomultiplier. The output of the photomultiplier tube was terminated into 50 ohm, and captured using a Tektronix DSA-602 digital oscilloscope. The entire experiment is controlled from a personal computer.
The experiments were performed either in acetonitrile, or a mixture of 80% acetonitrile and 20% water. The first singlet excited state of a cyanoanthracene (A), which acted as the electron acceptor, was produced using the nanosecond laser pulse at 410 nm. […] Secondary electron transfer then occurred between B^.cndot.+ and the lower oxidation potential electron donor X-Y, to generate X-Y^.cndot.+ in high yield. For the investigations of the oxidation potentials of the radicals X^.cndot., typically the cyanoanthrancene concentration was ca. 2×10^-5 M to 10^-4 M the biphenyl concentration was ca. 0.1M. The concentration of the X-Y donor was ca. 10^-3 M. The rates of the electron transfer reactions are determined by the concentrations of the substrates. The concentrations used ensured that the A^.cndot.- and the X-Y^.cndot.+ were generated within 100 ns of the laser pulse. The radical ions could be observed directly by means of their visible absorption spectra. The kinetics of the photogenerated radical ions were monitored by observation of the changes in optical density at the appropriate wavelengths.
The reduction potential (Ered) of 9,10-dicyanoanthracene (DCA) is -0.91 V. In a typical experiment, DCA is excited and the initial photo-induced electron transfer from the biphenyl (B) to the DCA forms a DCA^.cndot.-, which is observed at its characteristic absorption maximum (λobs =705 nm), within ca. 20 ns of the laser pulse. Rapid secondary electron transfer occurs from X-Y to B^.cndot.+ to generate X-Y^.cndot.+, which fragments to give X^.cndot.. A growth in absorption is then observed at 705 nm with a time constant of ca. 1 microsecond, due to reduction of a second DCA by the X^.cndot.. The absorption signal with the microsecond growth time is equal to the size of the absorption signal formed within 20 ns.
If the oxidation potential of X^.cndot. is not sufficiently negative to reduce DCA, an estimate of its oxidation potential was obtained by using other cyanoanthracenes as acceptors. […]

The nature of data set [3]: fragmentation rate constant kfr by laser flash photolysis. As to conditions: Table B; CH3CN/H2O (4:1). The text has this: The kinetics of the bond cleavage or fragmentation reaction can be measured by conventional laser flash photolysis. […] The specific experimental apparatus we used to measure fragmentation rate constants and radical oxidation potentials is described in detail below.
(b) Fragmentation Rate Constant Determination
These absorptions were used to determine the kinetics of the fragmentation reactions of the radical cations of the X-Y. Excitation of 9,10-dicyanoanthracene (DCA) in the presence of biphenyl and the X-Y donor, as described above, results in the formation of the DCA^.cndot.- and the X-Y^.cndot.+. By using a concentration of X-Y of ca. 10^-2 M, the X-Y^.cndot.+ can be formed within ca. 20 ns of the laser pulse. […] The monitoring wavelengths used were somewhat different for the different donors, but were mostly around 470-530 nm. […] Alternatively, when the decay rate of the X-Y^.cndot.+ was less than 10^6 s^-1, the solutions were purged with oxygen.
The experiments measuring the fragmentation rate constants were performed in acetonitrile with the addition of 20% water, so that all of the salts could be easily solubilized. Most experiments were performed at room temperature. […] When this happened, the fragmentation rate constants were measured as a function of temperature, and the rate constant at room temperature determined by extrapolation.

Take `CCN(CC)c1ccc(C(O)C(=O)O)cc1` (centres unmarked) [Compound 2]: the “Oxidation Potential of X--Y, E1” value in data set [1] is reported as 0.50 V vs SCE. For the same molecule, the “Oxidation Potentials of Radicals (X*), E2” value (“Oxidation Potentials” below) in data set [2] is reported as < -0.9 V.
`CN(C)c1ccc(C(O)C(=O)O)cc1` (centres unmarked) [Compound 3]: the “kfr, Rate Constants for Decarboxylation of Radical Cations” value (“kfr, Rate Constants for Decarboxylation” below) in data set [3] was determined as 550000 s⁻¹.
Turning to `CCN(CC)c1ccc(C(C)(O)C(=O)O)cc1` (centres unmarked) [Compound 4], the “Oxidation Potential of X--Y, E1” value in data set [1] is recorded as 0.49 V vs SCE.
With `CN(C)c1ccc(C(C)(O)C(=O)O)cc1` (centres unmarked) [Compound 5], the “Oxidation Potential of X--Y, E1” value in data set [1] was found to be 0.51 V vs SCE. Besides, the “Oxidation Potentials” value in data set [2] was < -0.9 V.
For the molecule `O=C(O)COc1ccc(N(CC(=O)O)CC(=O)O)cc1` [Compound 9], the “Oxidation Potential of X--Y, E1” value in data set [1] is given as 0.38 V vs SCE.
The same measure, in the same setting: the result for `O=C(O)CN(CC(=O)O)c1ccc(Cl)cc1` [Compound 12] reads 0.58 V vs SCE.
As for `CCC(C)c1ccc(N(CC(=O)O)C(C)C(=O)O)cc1` (centres unmarked) [Compound 16], the “Oxidation Potential of X--Y, E1” value in data set [1] is on record as 0.47 V vs SCE. Moreover, in data set [2], the “Oxidation Potentials” value is reported as ~ -0.9 V.
`CC(C(=O)O)N(CC(=O)O)c1ccc(C=O)cc1` (centres unmarked) [Compound 17]: the “Oxidation Potential of X--Y, E1” value in data set [1] stood at 0.74 V vs SCE.
`CC(C(=O)O)N(CC(=O)O)c1ccc(S(=O)(=O)O)cc1` (centres unmarked) [Compound 18]: the “Oxidation Potential of X--Y, E1” value in data set [1] is 0.70 V vs SCE.
For `CCN(CC)S(=O)(=O)c1ccc(N(CC(=O)O)C(C)C(=O)O)cc1` (centres unmarked) [Compound 19], the “Oxidation Potential of X--Y, E1” value in data set [1] is recorded as 0.68 V vs SCE.
`COc1ccc(N(CC(=O)O)CC(=O)O)cc1OC` [Compound 21]: the “Oxidation Potential of X--Y, E1” value in data set [1] turned out to be 0.36 V vs SCE. Besides, the “kfr, Rate Constants for Decarboxylation” value in data set [3] stood at 1000 s⁻¹.
Regarding `O=C(O)COc1ccccc1N(CC(=O)O)CC(=O)O` [Compound 22], the “Oxidation Potential of X--Y, E1” value in data set [1] was determined as 0.65 V vs SCE.
On the same count and under the same terms, with `COc1ccc(NC(C)C(=O)O)cc1` (centres unmarked) [Compound 23] the figure was 0.37 V vs SCE; with `CC(Nc1ccccc1)C(=O)O` (centres unmarked) [Compound 24], 0.52 V vs SCE.
Consider `CC(Nc1ccc(C(=O)O)cc1)C(=O)O` (centres unmarked) [Compound 25], for which the “Oxidation Potential of X--Y, E1” value in data set [1] was 0.62 V vs SCE.
On to `CC(Nc1ccc(Cl)cc1)C(=O)O` (centres unmarked) [Compound 26], for which the “Oxidation Potential of X--Y, E1” value in data set [1] stood at 0.51 V vs SCE.
For `CC(Nc1ccc(C(N)=O)cc1)C(=O)O` (centres unmarked) [Compound 27], the “Oxidation Potential of X--Y, E1” value in data set [1] is listed as 0.62 V vs SCE.
For `CCOC(=O)c1ccc(NC(C)C(=O)O)cc1` (centres unmarked) [Compound 28], the “Oxidation Potential of X--Y, E1” value in data set [1] is recorded as 0.61 V vs SCE.
The same measure, in the same setting: the result for `O=C(O)CC(Nc1ccccc1)C(=O)O` (centres unmarked) [Compound 30] reads 0.60 V vs SCE.
As for `O=C(O)CC(Nc1ccc(C(=O)O)cc1)C(=O)O` (centres unmarked) [Compound 31], in data set [1], the “Oxidation Potential of X--Y, E1” value was 0.61 V vs SCE.
On the same count and under the same terms, with `CC(Nc1cccc(C(N)=O)c1)C(=O)O` (centres unmarked) [Compound 32] the figure was 0.58 V vs SCE.
In the case of `CC(C(=O)O)N(C)c1ccc(C(=O)O)cc1` (centres unmarked) [Compound 33], in data set [1], the “Oxidation Potential of X--Y, E1” value is 0.54 V vs SCE. The “Oxidation Potentials” value in data set [2] is < -0.9 V.
Regarding `CCN(c1cccc(C(N)=O)c1)C(C)C(=O)O` (centres unmarked) [Compound 34], the “Oxidation Potential of X--Y, E1” value in data set [1] is recorded as 0.52 V vs SCE.
On to `CCCCN(c1ccc(C)cc1)C(C)C(=O)O` (centres unmarked) [Compound 35], for which the “Oxidation Potential of X--Y, E1” value in data set [1] was 0.34 V vs SCE.
For the molecule `CCCCN(c1ccccc1)C(C)C(=O)O` (centres unmarked) [Compound 37], in data set [1], the “Oxidation Potential of X--Y, E1” value is reported as 0.43 V vs SCE.
Same read-out and setting: the result for `CCCCN(c1ccc(C(=O)O)cc1)C(C)C(=O)O` (centres unmarked) [Compound 38] reads 0.48 V vs SCE.
For `CCCCN(c1ccc(Cl)cc1)C(C)C(=O)O` (centres unmarked) [Compound 39], the “Oxidation Potential of X--Y, E1” value in data set [1] is given as 0.40 V vs SCE.
For `CCCCN(c1ccc(C)cc1)C(CC(=O)O)C(=O)O` (centres unmarked) [Compound 40], the “Oxidation Potential of X--Y, E1” value in data set [1] is 0.38 V vs SCE. Moreover, the “kfr, Rate Constants for Decarboxylation” value in data set [3] came out at 1.3e+07 s⁻¹.
For `CCCCN(c1ccccc1)C(CC(=O)O)C(=O)O` (centres unmarked) [Compound 41], the “Oxidation Potential of X--Y, E1” value in data set [1] was found to be 0.48 V vs SCE.
As to `Cc1ccc(N(CCC(=O)O)C[Si](C)(C)C)cc1` [Compound 42], in data set [1], the “Oxidation Potential of X--Y, E1” value amounted to 0.30 V vs SCE. For the same molecule, the “Oxidation Potentials” value in data set [2] is on record as ~ -0.9 V.
For `Cn1cc(C(O)C(=O)O)c2ccccc21` (centres unmarked) [Compound 43], in that order: 0.61 V vs SCE and -0.89 V.
With `CC(C(=O)O)c1cn(C)c2ccccc12` (centres unmarked) [Compound 45], the “Oxidation Potential of X--Y, E1” value in data set [1] was determined as 0.64 V vs SCE. Also, the “Oxidation Potentials” value in data set [2] is -0.56 V.
For `Cn1cc(CC(=O)O)c2ccccc21` [Compound 46], in that order: 0.68 V vs SCE and ~ -0.34 V.
`CC1CC(C)(C)N(CC(=O)O)c2ccccc21` (centres unmarked) [Compound 47]: the “kfr, Rate Constants for Decarboxylation” value in data set [3] is given as > 10^7 s^-1. In addition, the “Oxidation Potentials” value in data set [2] is ~ -0.9 V.
As for `COc1cc(OC)c(C(O)C(=O)O)cc1OC` (centres unmarked) [Compound 48], in data set [1], the “Oxidation Potential of X--Y, E1” value was 0.70 V vs SCE. For the same molecule, the “Oxidation Potentials” value in data set [2] is given as < -0.9 V.
The corresponding values for `O=C(O)C(O)c1ccccc1` (centres unmarked) [Compound 49] are ~ 1.2 V vs SCE and -0.75 V.
With `COc1ccc(C(O)C(=O)O)cc1` (centres unmarked) [Compound 50], in data set [1], the “Oxidation Potential of X--Y, E1” value is recorded as ~ 1.05 V vs SCE. Further, in data set [2], the “Oxidation Potentials” value was < -0.9 V.
For `COc1ccc(C(O)C(=O)O)cc1OC` (centres unmarked) [Compound 51], the “Oxidation Potential of X--Y, E1” value in data set [1] is 0.91 V vs SCE. In addition, the “Oxidation Potentials” value in data set [2] is reported as < -0.9 V.
In the case of `CC(C(=O)O)N(c1ccccc1)c1ccccc1` (centres unmarked) [Compound 58], in data set [1], the “Oxidation Potential of X--Y, E1” value stood at 0.49 V vs SCE.
On the same count and under the same terms, the result for `CC(C)(Nc1ccccc1)C(=O)O` [Compound 59] reads 0.53 V vs SCE; that for `Nc1nc(C(O)C(=O)O)cs1` (centres unmarked) [Compound 60], 0.80 V vs SCE.
